From ChEMBL document CHEMBL1141812, “bis-5-Alkylresorcinols from Panopsis rubescens that inhibit DNA polymerase beta” (J Nat Prod, 1999)

Columns and labels:
DNA polymerase beta = DNA polymerase beta (Rattus norvegicus, UniProt P06766); test: Inhibition of rat DNA polymerase beta assessed as [3H]TTP incorporation after 60 mins by scintillation counting in presence of bovine serum albumin
[1] = target: DNA polymerase beta (Rattus norvegicus) (UniProt P06766); test: Inhibition of rat DNA polymerase beta assessed as [3H]TTP incorporation at 10 ug/mL after 60 mins by scintillation counting
[2] = target: DNA polymerase beta (Rattus norvegicus) (UniProt P06766); test: Inhibition of rat DNA polymerase beta assessed as [3H]TTP incorporation at 50 ug/mL after 60 mins by scintillation counting

**Q.** What does the source list for `Oc1cc(O)cc(CCCCCC/C=C\CCCCCCc2cc(O)cc(O)c2)c1`?
**A.** IC50 (DNA polymerase beta): 6.5 µM; inhibition [1]: 44%; inhibition [2]: 92%

**Q.** `Oc1cc(O)cc(CCC/C=C\CCCCCCCCCc2cc(O)cc(O)c2)c1` was tested. Which IC50 (DNA polymerase beta) did it give?
**A.** 7.5 µM

**Q.** And the inhibition [1]?
**A.** 51%

**Q.** What about the inhibition [2] of the same compound?
**A.** 98%

**Q.** How did the IC50 (DNA polymerase beta) turn out when `Oc1cc(O)cc(CCCCCCCCCCCCCCc2cc(O)cc(O)c2)c1` [BISNORSTRIATOL] was run?
**A.** 5.8 µM

**Q.** And the inhibition [1]?
**A.** 50%

**Q.** What about the inhibition [2] of the same compound?
**A.** 79%
